# Experimental data taken from ChEMBL document CHEMBL5678811 (Invest New Drugs, 2014).
# The source made the active and inactive calls. No cut-off for these calls is given here.
# Experiments:
# MV4-11 [1] = experiment: Cell cycle arrest in human MV4-11 cells assessed as accumulation of cells at S-phase at 0.04 uM measured after 24 hrs by propidium iodide staining based flow cytometry (reference value: 23.35%); format: functional
# MV4-11 [2] = experiment: Cell cycle arrest in human MV4-11 cells assessed as accumulation of cells at S-phase at 0.16 uM measured after 24 hrs by propidium iodide staining based flow cytometry (reference value: 23.35%); format: functional
# MV4-11 [3] = experiment: Cell cycle arrest in human MV4-11 cells assessed as accumulation of cells at G2/M-phase at 0.32 uM measured after 24 hrs by propidium iodide staining based flow cytometry (reference value: 15.23%); format: functional
# MV4-11 [4] = experiment: Cell cycle arrest in human MV4-11 cells assessed as accumulation of cells at G1-phase at […] measured after 24 hrs by propidium iodide staining based flow cytometry (reference value: 61.42%); format: functional; details: dose 0.625 µM
# MV4-11 [5] = experiment: Cell cycle arrest in human MV4-11 cells assessed as accumulation of cells at S-phase at […] measured after 24 hrs by propidium iodide staining based flow cytometry (reference value: 23.35%); format: functional; details: dose 0.625 µM
# MV4-11 [6] = experiment: Cell cycle arrest in human MV4-11 cells assessed as accumulation of cells at G2/M-phase at 1.25 uM measured after 24 hrs by propidium iodide staining based flow cytometry (reference value: 15.23%); format: functional
# MV4-11 [7] = experiment: Cell cycle arrest in human MV4-11 cells assessed as accumulation of cells at G2/M-phase at 2.5 uM measured after 24 hrs by propidium iodide staining based flow cytometry (reference value: 15.23%); format: functional
# MV4-11 [8] = experiment: Cell cycle arrest in human MV4-11 cells assessed as accumulation of cells at G2/M-phase at 5 uM measured after 24 hrs by propidium iodide staining based flow cytometry (reference value: 15.23%); format: functional
# MV4-11 [9] = experiment: Cell cycle arrest in human MV4-11 cells assessed as accumulation of cells at S-phase at 5 uM measured after 24 hrs by propidium iodide staining based flow cytometry (reference value: 23.35%); format: functional
# MDA-MB-231 [10] = experiment: Cell cycle arrest in human MDA-MB-231 cells assessed as accumulation of cells at G1-phase at 0.16 uM measured after 24 hrs by propidium iodide staining based flow cytometry (reference value: 50.27%); format: functional
# MDA-MB-231 [11] = experiment: Cell cycle arrest in human MDA-MB-231 cells assessed as accumulation of cells at S-phase at 0.16 uM measured after 24 hrs by propidium iodide staining based flow cytometry (reference value: 38.27%); format: functional
# MDA-MB-231 [12] = experiment: Cell cycle arrest in human MDA-MB-231 cells assessed as accumulation of cells at G2/M-phase at 2.5 uM measured after 24 hrs by propidium iodide staining based flow cytometry (reference value: 11.46%); format: functional
# MDA-MB-468 = experiment: Cell cycle arrest in human MDA-MB-468 cells assessed as accumulation of cells at G2/M-phase at 2.5 uM measured after 24 hrs by propidium iodide staining based flow cytometry (reference value: 26.49%); format: functional
# COLO 205 [13] = experiment: In vivo inhibition of CDK4/CDK6 in human COLO 205 cells xenografted CD1 nu/nu mouse assessed as reduction in TopoIIalpha expression at 12.5 to 50 mg/kg, po administered via gavage measured after 24 hrs by Western blot analysis; format: functional, organism-based; details: dose 12.5-50 mg/kg
# COLO 205 [14] = experiment: Antitumor activity against human COLO 205 cells xenografted in CD1 nu/nu mouse assessed as tumor growth inhibition at 25 to 100 mg/kg, po administered once daily via gavage for 21 days measured twice per week during compound dosing; format: functional, organism-based; details: dose 25-100 mg/kg, time 21.0 day
# [15] = Toxicity in human COLO 205 cells xenografted CD1 nu/nu mouse assessed as change in ileum histology at 50 mg/kg, po administered daily via gavage for 56 days and measured on day 41 to 69 by histopathological analysis; format: organism-based; details: in vivo, 1344 h, time 41-69 day
# [16] = Toxicity in human COLO 205 cells xenografted CD1 nu/nu mouse assessed as decrease in red cell mass at 50 mg/kg, po administered daily via gavage for 56 days and measured on day 41 to 69 by hematological analysis; format: organism-based; details: in vivo, 1344 h, time 41-69 day
# [17] = Toxicity in human COLO 205 cells xenografted CD1 nu/nu mouse assessed as decrease in lymphocyte count at 50 mg/kg, po administered daily via gavage for 56 days and measured on day 41 to 69 by hematological analysis; format: organism-based; details: in vivo, 1344 h, time 41-69 day
# [18] = Toxicity in human COLO 205 cells xenografted CD1 nu/nu mouse assessed as decrease in lymphocyte count at 50 mg/kg, po administered daily via gavage for 2 cycles of 3 weeks on/1 week rest and measured on day 41 to 69 by hematological analysis; format: organism-based; details: in vivo, time 41-69 day
# [19] = Toxicity in human Calu-6 cells xenografted CD1 nu/nu mouse assessed as body weight loss at 50 mg/kg, po administered once daily via gavage for 21 days measured twice per week during compound dosing in presence of gemcitabine; format: organism-based; details: in vivo, time 21 day
# COLO 205 [20] = details: Mus musculus, CD1, dose 25-50 mg/kg, route po
# COLO 205 [21] = details: Mus musculus, CD1, dose 50.0 mg/kg, route po
# COLO 205 [22] = details: Mus musculus, CD1, dose 50.0 mg/kg, route po; remark: listed apart in the source
# COLO 205 [23] = details: Mus musculus, CD1, dose 50.0 mg/kg, route po; remark: listed apart in the source
# COLO 205 [24] = details: Homo sapiens, dose 25-100 mg/kg, route po, time 35.0 day
# COLO 205 [25] = details: Homo sapiens, dose 50.0 mg/kg, route po, time > 56.0 day
# Calu-6 [26] = details: Homo sapiens, dose 50.0 mg/kg, route po, time 21.0 day
# Calu-6 [27] = details: Homo sapiens, dose 50.0 mg/kg, route po, time 16.0 day
# Mus musculus [28] = species on record: Mus musculus; details: CD1, dose 50.0 mg/kg, route po, time 22.0 day
# Mus musculus [29] = species on record: Mus musculus; details: CD1, dose 50.0 mg/kg, route po, time 17.0 day
# Mus musculus [30] = species on record: Mus musculus; details: CD1, dose 50.0 mg/kg, route po, time 17.0 day; remark: listed apart in the source
# [31] = target: Cyclin-dependent kinase 5/CDK5 activator 1 (Homo sapiens) (UniProt Q00535+Q15078); details: Sf21, dose 200.0 nM
# Description: Inhibition of recombinant human full-length N-terminal His6-tagged cdk5/N-terminal GST-tagged p25 expressed in baculovirus infected Sf21 cells at 200 nM using histone H1 as substrate relative to control
# [32] = target: High affinity nerve growth factor receptor (Homo sapiens) (UniProt P04629); details: Sf21, dose 200.0 nM
# [33] = target: Receptor-type tyrosine-protein kinase FLT3 (Homo sapiens) (UniProt P36888); details: Sf21, dose 200.0 nM
# Chain of Receptor-type tyrosine-protein kinase FLT3 (Homo sapiens) (P36888 whole entry): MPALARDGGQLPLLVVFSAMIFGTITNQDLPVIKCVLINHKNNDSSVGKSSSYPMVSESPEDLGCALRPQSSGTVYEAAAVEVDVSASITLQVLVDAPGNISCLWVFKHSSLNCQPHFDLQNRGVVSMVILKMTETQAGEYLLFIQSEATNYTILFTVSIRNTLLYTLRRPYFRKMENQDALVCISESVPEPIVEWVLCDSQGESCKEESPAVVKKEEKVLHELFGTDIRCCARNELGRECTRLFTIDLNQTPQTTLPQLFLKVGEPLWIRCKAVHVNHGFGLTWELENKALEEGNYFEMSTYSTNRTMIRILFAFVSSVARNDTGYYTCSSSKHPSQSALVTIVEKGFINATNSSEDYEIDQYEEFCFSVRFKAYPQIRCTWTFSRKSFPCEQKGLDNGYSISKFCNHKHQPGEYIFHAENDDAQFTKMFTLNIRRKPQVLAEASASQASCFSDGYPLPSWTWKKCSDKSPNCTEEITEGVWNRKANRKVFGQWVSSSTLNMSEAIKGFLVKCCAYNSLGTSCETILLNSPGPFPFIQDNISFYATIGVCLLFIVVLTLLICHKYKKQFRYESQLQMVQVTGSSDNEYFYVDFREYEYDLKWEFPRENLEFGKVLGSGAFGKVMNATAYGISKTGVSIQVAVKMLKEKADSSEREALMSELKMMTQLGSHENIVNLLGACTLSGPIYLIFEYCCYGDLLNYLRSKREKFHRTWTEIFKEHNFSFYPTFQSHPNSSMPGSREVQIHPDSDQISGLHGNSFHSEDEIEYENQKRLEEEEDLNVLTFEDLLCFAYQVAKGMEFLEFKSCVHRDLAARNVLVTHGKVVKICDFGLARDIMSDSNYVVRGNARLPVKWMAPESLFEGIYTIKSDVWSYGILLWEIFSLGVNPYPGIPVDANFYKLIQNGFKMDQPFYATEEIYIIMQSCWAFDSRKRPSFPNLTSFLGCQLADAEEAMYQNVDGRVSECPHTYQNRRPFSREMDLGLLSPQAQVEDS
# Description: Inhibition of recombinant human N-terminal GST-tagged FLT3 (564 to end residues) expressed in baculovirus infected Sf21 cells at 200 nM using Abltide as substrate relative to control
# Chain of High affinity nerve growth factor receptor (Homo sapiens) (P04629 33-796 limits assumed): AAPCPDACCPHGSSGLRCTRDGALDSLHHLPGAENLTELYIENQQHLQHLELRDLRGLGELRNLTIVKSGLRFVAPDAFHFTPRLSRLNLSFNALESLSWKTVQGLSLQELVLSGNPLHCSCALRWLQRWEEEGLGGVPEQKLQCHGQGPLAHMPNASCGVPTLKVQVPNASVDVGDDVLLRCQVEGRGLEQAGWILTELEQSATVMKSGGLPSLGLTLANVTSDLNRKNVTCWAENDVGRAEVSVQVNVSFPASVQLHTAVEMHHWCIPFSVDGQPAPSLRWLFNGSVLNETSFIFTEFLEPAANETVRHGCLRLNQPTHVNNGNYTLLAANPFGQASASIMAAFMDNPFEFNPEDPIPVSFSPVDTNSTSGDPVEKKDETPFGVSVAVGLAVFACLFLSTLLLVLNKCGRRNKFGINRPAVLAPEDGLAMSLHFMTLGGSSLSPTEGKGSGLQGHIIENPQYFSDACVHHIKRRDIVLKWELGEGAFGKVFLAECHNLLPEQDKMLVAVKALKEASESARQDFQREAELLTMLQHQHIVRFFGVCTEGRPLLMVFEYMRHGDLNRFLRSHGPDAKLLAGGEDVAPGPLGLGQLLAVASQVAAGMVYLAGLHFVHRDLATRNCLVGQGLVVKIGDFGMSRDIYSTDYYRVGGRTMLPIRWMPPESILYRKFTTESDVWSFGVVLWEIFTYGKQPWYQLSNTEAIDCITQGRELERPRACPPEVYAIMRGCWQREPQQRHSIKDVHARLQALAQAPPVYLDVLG
# Chain of Cyclin-dependent kinase 5/CDK5 activator 1 (Homo sapiens) (Q00535 whole entry): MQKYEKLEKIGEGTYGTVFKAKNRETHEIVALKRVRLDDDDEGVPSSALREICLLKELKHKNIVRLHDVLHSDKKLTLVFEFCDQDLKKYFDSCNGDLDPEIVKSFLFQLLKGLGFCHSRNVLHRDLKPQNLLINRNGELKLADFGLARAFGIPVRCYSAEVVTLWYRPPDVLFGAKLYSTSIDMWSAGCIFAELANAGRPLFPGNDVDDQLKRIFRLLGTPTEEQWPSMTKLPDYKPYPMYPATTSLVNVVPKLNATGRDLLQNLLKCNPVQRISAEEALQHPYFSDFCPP
# Chain of Cyclin-dependent kinase 5/CDK5 activator 1 (Homo sapiens) (Q15078 99-307 partner limits assumed): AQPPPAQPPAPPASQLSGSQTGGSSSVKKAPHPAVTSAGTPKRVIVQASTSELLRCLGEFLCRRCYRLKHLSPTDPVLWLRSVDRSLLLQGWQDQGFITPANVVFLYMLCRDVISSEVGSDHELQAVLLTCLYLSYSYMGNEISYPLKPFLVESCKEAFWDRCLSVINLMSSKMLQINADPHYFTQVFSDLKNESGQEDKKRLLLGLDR
structure (smiles),measurement,setting,value
CCN1CCN(Cc2ccc(Nc3ncc(F)c(-c4cc(F)c5nc(C)n(C(C)C)c5c4)n3)nc2)CC1 [ABEMACICLIB],Activity,MV4-11 [1],16.32%
same,Activity,MV4-11 [2],4.59%
same,Activity,MV4-11 [3],1.82%
same,Activity,MV4-11 [4],94.63%
same,Activity,MV4-11 [5],3.6%
same,Activity,MV4-11 [6],1.84%
same,Activity,MV4-11 [7],2.96%
same,Activity,MV4-11 [8],0.54%
same,Activity,MV4-11 [9],3.9%
same,Activity,MDA-MB-231 [10],78.86%
same,Activity,MDA-MB-231 [11],17.12%
same,Activity,MDA-MB-231 [12],5.77%
same,Activity,MDA-MB-468,28.82%
same,inhibition,COLO 205 [13],Active
same,TGI,COLO 205 [14],Active
same,Activity,[15],Non-Toxic
same,Activity,[16],Non-Toxic
same,Activity,[17],Non-Toxic
same,Activity,[18],Non-Toxic
same,Activity,[19],Non-Toxic
same,inhibition,COLO 205 [20],Dose-Dependent Effect
same,inhibition,COLO 205 [21],Active
same,inhibition,COLO 205 [22],inactive
same,inhibition,COLO 205 [23],inactive
same,TGI,COLO 205 [24],Dose-Dependent Effect
same,TGI,COLO 205 [25],Active
same,TGI,Calu-6 [26],Active
same,TGI,Calu-6 [27],Active
same,inhibition,Mus musculus [28],inactive
same,inhibition,Mus musculus [29],inactive
same,inhibition,Mus musculus [30],inactive
same,inhibition,[31],> 90%
same,inhibition,[32],> 90%
same,inhibition,[33],> 90%
